Values after ≈ are worked out from the molar mass of the structure shown.

Among the data in patent US20240166609A1, “ANTIBACTERIAL COMPOUNDS” (BLACKSMITH MEDICINES, INC., priority 2021, published 2024) are MIC and IC50 values, retold here.

The test system of one experiment is K. pneumoniae ATCC13883. Put plainly: Bacterial susceptibility testing, MIC by broth microdilution (CLSI). Format: cell-based. The settings on record: Klebsiella pneumoniae, 35° C., 18-24 h, read-out: MIC (μg/mL) K. pneumoniae ATCC13883. The protocol: (§1) Minimal inhibitory concentrations (MIC) were determined by the broth microdilution method in accordance with the Clinical and Laboratory Standards Institute (CLSI) guidelines. In brief, organism suspensions were adjusted to a final inoculum between 3×10^5 and 7×10^5 colony-forming units (CFU)/mL. Drug dilutions and inocula were made in sterile, cation adjusted Mueller-Hinton Broth (Beckton Dickinson). In wells, an inoculum volume of 100 μL was mixed to 2 μL of DMSO with 2-fold serial dilutions of drug. All inoculated microdilution trays were incubated in ambient air at 35° C. for 18-24 h. Following incubation, the lowest concentration of the drug that prevented visible growth (OD600 nm<0.05) was recorded as the MIC. Performance of the assay was monitored by the use of laboratory quality-control strains and compounds with defined MIC spectrum, in accordance with CLSI guidelines

A further experiment relates to E. coli ATCC25922. The description is as above. The class given is cell-based. Particulars: Escherichia coli, 35° C., 18-24 h, read-out: MIC (μg/mL) E. coli ATCC25922. The protocol: as §1
The subject of another experiment is P. aeruginosa 209 PAO1. Described as above. The class given is cell-based. Particulars: Pseudomonas aeruginosa, 35° C., 18-24 h, read-out: MIC (μg/mL) P. aeruginosa 209 PAO1. The protocol:
as §1

A further experiment relates to P. aeruginosa ATCC27835. The description is as above. The class given is cell-based. The settings on record: Pseudomonas aeruginosa, 35° C., 18-24 h, read-out: MIC (μg/mL) P. aeruginosa ATCC27835. How it is done: as §1
Another experiment addresses T1, E. coli LpxC (Escherichia coli, UniProt P0A725).
T1 sequence (P0A725 1-305): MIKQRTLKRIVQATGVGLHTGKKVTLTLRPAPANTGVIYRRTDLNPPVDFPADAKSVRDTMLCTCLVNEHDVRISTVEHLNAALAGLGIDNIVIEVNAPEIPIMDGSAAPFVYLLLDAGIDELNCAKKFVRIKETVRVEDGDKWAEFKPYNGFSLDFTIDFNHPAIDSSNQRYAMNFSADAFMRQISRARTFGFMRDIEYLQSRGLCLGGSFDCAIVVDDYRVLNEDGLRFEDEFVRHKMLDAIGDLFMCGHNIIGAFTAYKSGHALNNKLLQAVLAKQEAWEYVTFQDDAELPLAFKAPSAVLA
Briefly: LpxC Binding Assay (Rapid Fire MS assay). Format: biochemical. How it is done:
(§2) IC50 values against E. coli and P. aeruginosa LpxC are determined using a Rapid Fire MS assay as previously described J. Med. Chem. 2012, 55, 1662-1670.

A further experiment concerns the target T2, P. aeruginosa LpxC (Pseudomonas aeruginosa, UniProt P47205).
T2 sequence (P47205 1-303): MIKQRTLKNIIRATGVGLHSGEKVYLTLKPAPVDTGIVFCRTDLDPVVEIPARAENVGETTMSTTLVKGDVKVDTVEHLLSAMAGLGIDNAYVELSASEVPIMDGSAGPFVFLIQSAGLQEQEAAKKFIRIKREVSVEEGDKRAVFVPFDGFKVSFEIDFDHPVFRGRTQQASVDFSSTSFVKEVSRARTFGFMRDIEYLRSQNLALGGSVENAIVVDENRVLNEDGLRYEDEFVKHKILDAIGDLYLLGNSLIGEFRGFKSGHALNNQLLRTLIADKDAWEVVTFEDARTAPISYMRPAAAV
Briefly: LpxC Binding Assay (Rapid Fire MS assay). The class given is biochemical. How it is done:
as §2

In another experiment the target is K. pneumoniae LpxC (Klebsiella pneumoniae subsp. pneumoniae, UniProt A6T4N9). Put plainly: LpxC Binding Assay (Rapid Fire MS assay). The class given is biochemical.
Sequence of K. pneumoniae LpxC (A6T4N9 whole entry): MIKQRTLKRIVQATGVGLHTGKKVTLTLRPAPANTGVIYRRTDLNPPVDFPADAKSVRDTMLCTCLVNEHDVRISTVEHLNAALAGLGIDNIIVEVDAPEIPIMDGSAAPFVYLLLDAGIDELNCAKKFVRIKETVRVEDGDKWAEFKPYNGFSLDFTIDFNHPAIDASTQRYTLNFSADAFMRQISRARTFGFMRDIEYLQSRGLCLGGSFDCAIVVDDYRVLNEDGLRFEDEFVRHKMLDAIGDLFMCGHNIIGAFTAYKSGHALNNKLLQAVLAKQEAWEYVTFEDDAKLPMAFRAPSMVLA

Take `COCC(N)COc1ccc(-c2ccc(C#C[C@@H](CO)n3ccnc3[C@H](C)O)cc2)cc1` (mixture of isomers) [Compound 3, (2S)-4-(4′-(2-amino-3-methoxypropoxy)-[1,1′-biphenyl]-4-yl)-2-(2-((S)-1-hydroxyethyl)-1H-imidazol-1-yl)but-3-yn-1-ol]: the MIC in the experiment with K. pneumoniae ATCC13883 was found to be 4 µg/mL (≈ 9.18 µM); in the experiment on E. coli ATCC25922, 2 µg/mL (≈ 4.59 µM); in the experiment with P. aeruginosa 209 PAO1, 1 µg/mL (≈ 2.3 µM); with P. aeruginosa ATCC27835 it was 2 µg/mL (≈ 4.59 µM). Further, the concentration for half-maximal inhibition (IC50) on E. coli LpxC amounted to 1.5 nM; on P. aeruginosa LpxC, 15.1 nM; at K. pneumoniae LpxC, 2.2 nM.

Regarding `C[C@H](O)c1nccn1[C@@H](C#Cc1ccc(-c2ccc(O[C@H]3COC[C@@H]3O)cc2)cc1)CO` (relative stereo) [Compound 10, (trans)-4-((4′-((S)-4-hydroxy-3-(2-((S)-1-hydroxyethyl)-1H-imidazol-1-yl)but-1-yn-1-yl)-[1,1′-biphenyl]-4-yl)oxy)tetrahydrofuran-3-ol], the values for the MIC with K. pneumoniae ATCC13883, in the experiment on P. aeruginosa 209 PAO1 and in the experiment with P. aeruginosa ATCC27835 were 2 µg/mL (≈ 4.6 µM), 1 µg/mL (≈ 2.3 µM) and 2 µg/mL (≈ 4.6 µM), respectively. Also, the IC50 on E. coli LpxC is under 0.5 nM; on P. aeruginosa LpxC, 5.1 nM; at K. pneumoniae LpxC, 0.9 nM.

Turning to `C[C@H](O)c1nccn1[C@@H](C#Cc1ccc(-c2ccc(O[C@H]3COC[C@@H]3N)cc2)cc1)CO` (relative stereo) [Compound 15, (S)-4-(4′-(((trans)-4-aminotetrahydrofuran-3-yl)oxy)-[1,1′-biphenyl]-4-yl)-2-(2-((S)-1-hydroxyethyl)-1H-imidazol-1-yl)but-3-yn-1-ol], the MIC with K. pneumoniae ATCC13883 stood at 1 µg/mL (≈ 2.31 µM); in the experiment on P. aeruginosa 209 PAO1 it was 0.5 µg/mL (≈ 1.15 µM); in the experiment on P. aeruginosa ATCC27835, 2 µg/mL (≈ 4.61 µM). In addition, the figures for the half-maximal inhibitory concentration (IC50) at E. coli LpxC, at P. aeruginosa LpxC and on K. pneumoniae LpxC were 1 nM, 9.8 nM and 1.6 nM, respectively.

For the compound `C[C@H](O)c1nccn1[C@@H](C#Cc1ccc(-c2ccc(O[C@H]3COC[C@@H]3O)cc2)cc1)CN` (relative stereo) [Compound 24, (trans)-4-((4′-((S)-4-amino-3-(2-((S)-1-hydroxyethyl)-1H-imidazol-1-yl)but-1-yn-1-yl)-[1,1′-biphenyl]-4-yl)oxy)tetrahydrofuran-3-ol], the MIC with K. pneumoniae ATCC13883 is 4 µg/mL (≈ 9.23 µM); in the experiment on P. aeruginosa 209 PAO1, 2 µg/mL (≈ 4.61 µM); in the experiment with P. aeruginosa ATCC27835 it was 4 µg/mL (≈ 9.23 µM). Moreover, the values for the IC50 on E. coli LpxC, on P. aeruginosa LpxC and on K. pneumoniae LpxC were 1.9 nM, 42.9 nM and 4.1 nM, respectively.

Consider `C[C@H](O)c1nccn1[C@@H](C#Cc1ccc(-c2ccc(OC[C@@H](O)CO)cc2)cc1)CO` [Compound 8, (S)-3-((4′-((S)-4-hydroxy-3-(2-((S)-1-hydroxyethyl)-1H-imidazol-1-yl)but-1-yn-1-yl)-[1,1′-biphenyl]-4-yl)oxy)propane-1,2-diol], for which the values for the MIC with K. pneumoniae ATCC13883, with P. aeruginosa 209 PAO1 and in the experiment with P. aeruginosa ATCC27835 were 4 µg/mL (≈ 9.47 µM), 2 µg/mL (≈ 4.73 µM) and 2 µg/mL (≈ 4.73 µM), respectively. The IC50 on E. coli LpxC was 1 nM; at P. aeruginosa LpxC, 9.6 nM; on K. pneumoniae LpxC, 1.9 nM.

Turning to `C[C@H](O)c1nccn1[C@@H](C#Cc1ccc(-c2ccc(OCC(CO)CO)cc2)cc1)CO` [Compound 11, 2-(((4′-((S)-4-hydroxy-3-(2-((S)-1-hydroxyethyl)-1H-imidazol-1-yl)but-1-yn-1-yl)-[1,1′-biphenyl]-4-yl)oxy)methyl)propane-1,3-diol], the MIC in the experiment with K. pneumoniae ATCC13883 is 8 µg/mL (≈ 18.3 µM); in the experiment on P. aeruginosa 209 PAO1 it was 2 µg/mL (≈ 4.58 µM); with P. aeruginosa ATCC27835, 4 µg/mL (≈ 9.16 µM). The IC50 on E. coli LpxC was determined as 1 nM; on P. aeruginosa LpxC it was 6.6 nM; on K. pneumoniae LpxC, 1.8 nM.

Take `COC[C@@H](O)COc1ccc(-c2ccc(C#C[C@@H](CO)n3ccnc3[C@H](C)O)cc2)cc1` [Compound 14, (S)-4-(4′-((R)-2-hydroxy-3-methoxypropoxy)-[1,1′-biphenyl]-4-yl)-2-(2-((S)-1-hydroxyethyl)-1H-imidazol-1-yl)but-3-yn-1-ol]: the MIC with K. pneumoniae ATCC13883 came to 2 µg/mL (≈ 4.58 µM); in the experiment on P. aeruginosa 209 PAO1 it was 1 µg/mL (≈ 2.29 µM); in the experiment with P. aeruginosa ATCC27835 it was 2 µg/mL (≈ 4.58 µM). The IC50 at E. coli LpxC is under 0.5 nM; at P. aeruginosa LpxC it was 6.4 nM; on K. pneumoniae LpxC, 0.9 nM.

Consider `C[C@H](O)c1nccn1CC#Cc1ccc(-c2ccc(C3CC(NCCC#N)C3)cc2)cc1` (stereo partly drawn) [Compound 18, (S)-3-((3-(4′-(3-(2-(1-hydroxyethyl)-1H-imidazol-1-yl)prop-1-yn-1-yl)-[1,1′-biphenyl]-4-yl)cyclobutyl)amino)propanenitrile], for which the MIC in the experiment on K. pneumoniae ATCC13883 stood at 0.25 µg/mL (≈ 0.589 µM); in the experiment on P. aeruginosa 209 PAO1, 2 µg/mL (≈ 4.71 µM); with P. aeruginosa ATCC27835, 2 µg/mL (≈ 4.71 µM). For the same compound, the IC50 at E. coli LpxC is under 0.5 nM; at P. aeruginosa LpxC it was 8.6 nM; on K. pneumoniae LpxC, 0.6 nM.

As to `C[C@H](O)c1nccn1CC#Cc1ccc(-c2ccc(C3CC(NCCO)C3)cc2)cc1` (stereo partly drawn) [Compound 19, (S)-2-((3-(4′-(3-(2-(1-hydroxyethyl)-1H-imidazol-1-yl)prop-1-yn-1-yl)-[1,1′-biphenyl]-4-yl)cyclobutyl)amino)ethan-1-ol], the MIC with K. pneumoniae ATCC13883 is 1 µg/mL (≈ 2.41 µM); with P. aeruginosa 209 PAO1, 4 µg/mL (≈ 9.63 µM); with P. aeruginosa ATCC27835, 4 µg/mL (≈ 9.63 µM). Also, the IC50 was under 0.5 nM at E. coli LpxC, 15.9 nM at P. aeruginosa LpxC and 0.7 nM on K. pneumoniae LpxC.

As to `C[C@H](O)c1nccn1CC#Cc1ccc(-c2ccc(C3CC(NC4COC4)C3)cc2)cc1` (stereo partly drawn) [Compound 20, (S)-1-(1-(3-(4′-(3-(oxetan-3-ylamino)cyclobutyl)-[1,1′-biphenyl]-4-yl)prop-2-yn-1-yl)-1H-imidazol-2-yl)ethan-1-ol], the results for the MIC with K. pneumoniae ATCC13883, with P. aeruginosa 209 PAO1 and with P. aeruginosa ATCC27835 were 0.5 µg/mL (≈ 1.17 µM), 4 µg/mL (≈ 9.36 µM) and 4 µg/mL (≈ 9.36 µM), respectively. The IC50 on E. coli LpxC was under 0.5 nM; on P. aeruginosa LpxC it was 11.8 nM; on K. pneumoniae LpxC, 0.7 nM.

In the case of `C[C@H](O)c1nccn1CC#Cc1ccc(-c2ccc(C3CN(C(=O)CO)C3)cc2)cc1` [Compound 21, (S)-2-hydroxy-1-(3-(4′-(3-(2-(1-hydroxyethyl)-1H-imidazol-1-yl)prop-1-yn-1-yl)-[1,1′-biphenyl]-4-yl)azetidin-1-yl)ethan-1-one], the MIC came out at 1 µg/mL (≈ 2.41 µM) in the experiment with K. pneumoniae ATCC13883, 4 µg/mL (≈ 9.63 µM) in the experiment on P. aeruginosa 209 PAO1 and 4 µg/mL (≈ 9.63 µM) in the experiment with P. aeruginosa ATCC27835. For the same compound, the IC50 on E. coli LpxC was under 0.5 nM; at P. aeruginosa LpxC, 12.6 nM; on K. pneumoniae LpxC, 0.7 nM.

In the case of `C[C@H](O)c1nccn1[C@@H](C#Cc1ccc(-c2ccc(OCC(O)CCCO)cc2)cc1)CO` (stereo partly drawn) [Compound 23, 5-((4′-((S)-4-hydroxy-3-(2-((S)-1-hydroxyethyl)-1H-imidazol-1-yl)but-1-yn-1-yl)-[1,1′-biphenyl]-4-yl)oxy)pentane-1,4-diol], the MIC with K. pneumoniae ATCC13883, with P. aeruginosa 209 PAO1 and in the experiment on P. aeruginosa ATCC27835 was 2 µg/mL (≈ 4.44 µM) each time. Also, the IC50 is 0.5 nM on E. coli LpxC, 7.8 nM at P. aeruginosa LpxC and 1 nM at K. pneumoniae LpxC.
